Test results published in paper PMC12068008 (International Journal of Molecular Sciences, 2024).

Assays:
[1] = physchem; type: physicochemical; settings: n-octanol/deionized water, shake flask, 25 °C, 1 × 10^−4 M, read-out: logP, experimentally obtained
Protocol: To measure the lipophilicity (expressed as the partition coefficient) of the synthesized compounds and their constituents, using a “shake-flask” method, a two-phase system composed of n-octanol and deionized water was used. The stock solutions of the compounds were diluted with water to the concentration of 1 × 10^−4 M, and this solution was used for further investigation. […] The concentration of the compounds was calculated from their extinction coefficient at 260 nm that was previously determined.

[2] = target: eeAChE (Electrophorus electricus, UniProt O42275); assay: biochemical; settings: at 1 × 10^−4 M, 37 °C; for inhibition at 100 µM: read-out: Percentage Inhibition AChE
Protocol: The abilities of compounds to inhibit AChE and BuChE activity were determined following Ellman’s procedure, with AChI and BuChI as the enzyme substrate, respectively, and DTNB as a chromogenic reagent. AChE’s and BuChE’s working solutions were prepared at 20 mM TRIS and deionized water, respectively. AChI and BuChI solutions were prepared in deionized water. […] Stock solutions (10 mM) of investigated compounds were prepared daily by dissolving solid compounds in DMSO. The reaction mixture containing phosphate buffer, DTNB, enzyme, and compound was preincubated 30 min at 37 °C. After the preincubation time, the enzyme reaction was initiated by adding appropriate substrate and left to incubate for 6 min. After incubation, 0.1 M SDS was added to stop the reaction. […] A blank assay, containing all components except the enzyme, was used to account for non-enzyme reactions. The control solution contained all components except the inhibitor. All experiments were conducted in triplicate, and the results are expressed as the mean percentage enzyme activity compared to the control value. IC50 values were determined graphically using Origin 9 Microsoft Windows.

[3] = target: Na^+, K^+-ATPase; assay: Na+,K+-ATPase assay (orthophosphate release); type: biochemical, porcine
Protocol: Na^+, K^+-ATPase activity was assessed using a modified version of the method by Seals et al., based on measuring the change in orthophosphate concentration released during ATP hydrolysis. The incubation mixture was prepared at 50 mM TRIS-HCl (pH 7.4), containing 5 mM MgCl2, 100 mM NaCl, 20 mM KCl, 25 μL of 5mg/mL commercial enzyme solution, and 20 μL of an inhibitor solution at a certain concentration. After preincubating the mixture for 10 min at 37 °C, the reaction was initiated by adding 20 μL of 20 mM ATP. The reaction proceeded for 10 min at 37 °C before being terminated by adding 22 μL of 3 M cold perchloric acid, with the tube then placed on ice. In the blank sample, the incubation mixture contained only TRIS buffer (pH 7.4) without MgCl2, NaCl, or KCl. The reaction volume was adjusted to a final volume of 200 μL, after which 4.5 mL of water was added. Released orthophosphate was quantified using a colorimetric reaction with 200 μL of 0.2 M ammonium molybdate in 30% sulfuric acid and one drop of 2.5% SnCl2 in glycerol. Total ATPase activity was determined by measuring the absorbance of solution at 690 nm. Enzyme activity was expressed as relative enzyme activity (REA), defined as the percentage of Na^+, K^+-ATPase activity remaining in comparison to samples without inhibitor (control activity).

eeAChE, sequence (O42275 24-633): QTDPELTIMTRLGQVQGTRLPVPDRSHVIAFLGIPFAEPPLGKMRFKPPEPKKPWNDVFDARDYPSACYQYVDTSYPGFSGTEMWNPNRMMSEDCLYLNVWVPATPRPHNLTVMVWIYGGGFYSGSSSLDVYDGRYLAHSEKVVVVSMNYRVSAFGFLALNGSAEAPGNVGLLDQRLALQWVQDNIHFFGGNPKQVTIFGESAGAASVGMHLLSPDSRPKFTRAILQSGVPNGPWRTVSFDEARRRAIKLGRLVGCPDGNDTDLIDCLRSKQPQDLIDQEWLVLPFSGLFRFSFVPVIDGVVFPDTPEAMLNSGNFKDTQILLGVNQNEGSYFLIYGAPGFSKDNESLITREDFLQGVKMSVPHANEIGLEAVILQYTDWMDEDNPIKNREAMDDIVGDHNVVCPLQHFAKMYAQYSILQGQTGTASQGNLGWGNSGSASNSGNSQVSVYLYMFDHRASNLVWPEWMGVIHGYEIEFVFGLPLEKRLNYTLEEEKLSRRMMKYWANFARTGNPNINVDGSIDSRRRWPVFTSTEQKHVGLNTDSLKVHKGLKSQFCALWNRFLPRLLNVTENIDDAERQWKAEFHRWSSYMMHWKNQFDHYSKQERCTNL

SMILES | logP at 30 min [1] | inhibition at 100 µM [2] [%] | IC50 ([3]; 37 °C) [nM] | Percentage Inhibition Na^+, K^+-ATPase ([3]; at 1 × 10^−4 M, 37 °C) [%] | fold decrease in IC50 toward Na^+, K^+-ATPase compared to bare quercetin ([3]; versus quercetin) [fold] | Percentage Inhibition AChE [2] [%]
O=c1c(O)c(-c2ccc(O)c(O)c2)oc2c(CN3CCc4ccccc4C3)c(O)cc(O)c12 [Compound 2a] | 3.07 | 33.3 | – | – | – | –
COc1cc2c(cc1OC)CN(Cc1c(O)cc(O)c3c(=O)c(O)c(-c4ccc(O)c(O)c4)oc13)CC2 [Compound 2b] | 2.47 | 15 | 970 | 100 | 50 | 15.4
